Key:
[1] = molecular target: T1, Peroxisome proliferator-activated receptor alpha (Homo sapiens, UniProt Q07869)
T1 sequence (Q07869 whole entry): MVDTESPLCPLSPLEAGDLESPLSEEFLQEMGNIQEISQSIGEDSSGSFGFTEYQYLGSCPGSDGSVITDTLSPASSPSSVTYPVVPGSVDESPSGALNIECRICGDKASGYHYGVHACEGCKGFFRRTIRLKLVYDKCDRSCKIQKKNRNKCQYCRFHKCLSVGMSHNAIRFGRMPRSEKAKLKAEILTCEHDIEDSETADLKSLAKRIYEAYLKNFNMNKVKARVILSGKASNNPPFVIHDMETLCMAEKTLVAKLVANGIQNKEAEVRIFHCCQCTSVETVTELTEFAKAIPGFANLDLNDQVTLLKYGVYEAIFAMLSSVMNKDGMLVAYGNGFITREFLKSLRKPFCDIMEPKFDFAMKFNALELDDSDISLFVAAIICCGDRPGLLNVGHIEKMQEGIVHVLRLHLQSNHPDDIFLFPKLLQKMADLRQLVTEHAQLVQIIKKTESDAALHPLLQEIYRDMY

[2] = molecular target: T1, Peroxisome proliferator-activated receptor alpha; remark: listed apart in the source
[3] = species: Rattus norvegicus; test: animal or person; format: functional
[4] = molecular target: T2, Peroxisome proliferator-activated receptor delta (Homo sapiens, UniProt Q03181)
T2 sequence (Q03181 whole entry): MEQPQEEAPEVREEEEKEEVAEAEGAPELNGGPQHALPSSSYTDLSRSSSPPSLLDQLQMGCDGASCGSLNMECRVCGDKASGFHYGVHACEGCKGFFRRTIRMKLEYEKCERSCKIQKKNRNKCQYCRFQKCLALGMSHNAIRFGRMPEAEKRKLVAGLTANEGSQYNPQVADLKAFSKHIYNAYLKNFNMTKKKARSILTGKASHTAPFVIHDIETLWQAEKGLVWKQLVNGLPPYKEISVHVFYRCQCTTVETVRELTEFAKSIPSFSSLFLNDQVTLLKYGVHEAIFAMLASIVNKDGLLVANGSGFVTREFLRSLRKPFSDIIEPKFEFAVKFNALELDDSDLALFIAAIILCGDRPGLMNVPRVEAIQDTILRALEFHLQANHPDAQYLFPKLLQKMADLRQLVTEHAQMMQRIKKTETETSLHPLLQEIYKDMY

COc1cc(C[C@H](OC)C(=O)O)ccc1OCCCOc1ccc(Oc2ccccc2)cc1
EC50 [1]: 2.15 µM | IC50 [2]: 1.35 µM | ED50 [3]: 0.12 mg/kg | IC50 [4]: 7.5 µM

CC(C)(Oc1ccc(C(=O)c2ccc(Cl)cc2)cc1)C(=O)O [FENOFIBRIC ACID]
EC50 [1]: > 10 µM | IC50 [2]: > 10 µM

CO[C@@H](Cc1ccc(OCCCOc2ccc(C(=O)c3ccccc3)cc2)cc1)C(=O)O
EC50 [1]: 2.87 µM | IC50 [2]: 0.47 µM | ED50 [3]: 0.18 mg/kg | IC50 [4]: 2.32 µM

CO[C@@H](Cc1ccc(OCCCOc2ccc(Oc3ccccc3)cc2)cc1)C(=O)O [NAVEGLITAZAR]
EC50 [1]: 2.82 µM | IC50 [2]: 2.71 µM | ED50 [3]: 0.1 mg/kg | IC50 [4]: 1.92 µM

CCO[C@@H](Cc1ccc(OCCCOc2ccc(Oc3ccccc3)cc2)cc1)C(=O)O
EC50 [1]: 2.75 µM | IC50 [2]: 1.69 µM | ED50 [3]: 0.015 mg/kg | IC50 [4]: 1.57 µM

CO[C@@H](Cc1ccc(OCCCOc2ccc(C(=O)c3ccccc3)cc2)c(Cl)c1)C(=O)O
EC50 [1]: 2.71 µM | IC50 [2]: 0.309 µM | ED50 [3]: 0.29 mg/kg | IC50 [4]: 1.51 µM

CO[C@@H](Cc1ccc(OCCCOc2ccc(-c3ccccc3)cc2)cc1)C(=O)O
EC50 [1]: 1.1 µM | IC50 [2]: 0.568 µM | ED50 [3]: 1.5 mg/kg | IC50 [4]: 1.39 µM

CO[C@@H](Cc1ccc(C#CCCOc2ccc(Oc3ccccc3)cc2)cc1)C(=O)O
EC50 [1]: 1.88 µM | IC50 [2]: 1.15 µM | ED50 [3]: 0.08 mg/kg | IC50 [4]: 3.94 µM

CO[C@@H](Cc1ccc(C#CCCCOc2ccc(Oc3ccccc3)cc2)cc1)C(=O)O
EC50 [1]: 2.62 µM | IC50 [2]: 0.77 µM | ED50 [3]: 0.07 mg/kg | IC50 [4]: 4.12 µM
